These results are taken from ChEMBL document CHEMBL1128274, “6-Aminoquinolones: a new class of quinolone antibacterials?” (1995).

In brackets after ≈: the same amount, converted by molar mass.

Common to all, as to format: functional
Assay [1] deals with Staphylococcus aureus. Kind of assay: Tested in vitro for inhibitory activity against gram positive bacteria Staphylococcus aureus MPR 5 strain.
The test system of assay [2] is Klebsiella pneumoniae. Kind of assay: Tested in vitro for inhibitory activity against gram negative bacteria Klebsiella pneumoniae ATCC 10031 strain.
Assay [3] deals with Escherichia coli. In words: Tested in vitro for inhibitory activity against gram negative bacteria Escherichia coli ATCC 8739 strain.
The subject of assay [4] is Providencia stuartii. Kind of assay: Tested in vitro for inhibitory activity against gram negative bacteria Providencia stuartii CNUR 5 strain.
Assay [5] relates to Pseudomonas aeruginosa. In words: Tested in vitro for inhibitory activity against gram negative bacteria Pseudomonas aeruginosa ATCC 9027 strain.
Assay [6] concerns Staphylococcus epidermidis. In words: Tested in vitro for inhibitory activity against gram positive bacteria Staphylococcus epidermidis HCF berset C strain.
Assay [7] concerns Enterobacter cloacae. Kind of assay: Tested in vitro for inhibitory activity against gram negative bacteria Enterobacter cloacae OMNFI 174 strain.
For assay [8], the system named is Acinetobacter calcoaceticus. Kind of assay: Tested in vitro for inhibitory activity against gram negative bacteria Acinetobacter calcoaceticus OSMPV 113 strain.
The subject of assay [9] is Escherichia coli. In words: Tested in vitro for inhibitory activity against gram negative bacteria Escherichia coli ISF 432 strain.
Assay [10] concerns Enterococcus faecalis. In words: Tested in vitro for inhibitory activity against gram positive bacteria Streptococcus faecalis LEP Br strain.
Assay [11] concerns Shigella. In words: Tested in vitro for inhibitory activity against gram negative bacteria Shigella enteritidis.
For assay [12], the system named is Staphylococcus aureus. In words: Tested in vitro for inhibitory activity against gram positive bacteria Staphylococcus aureus ATCC 6538 strain.
For assay [13], the system named is Staphylococcus epidermidis. In words: Tested in vitro for inhibitory activity against gram positive bacteria Staphylococcus epidermidis CPHL A2 strain.

The MIC is the lowest concentration that inhibits growth of the organism. For the compound `Nc1cc2c(=O)c(C(=O)O)cn(-c3ccc(F)cc3)c2cc1N1CCSCC1`, the MIC in [1] was determined as 1 µg/mL (≈ 2.5 µM); in assay [2], 0.03 µg/mL (≈ 0.0751 µM); in assay [3], 0.06 µg/mL (≈ 0.15 µM); in assay [4], 4 µg/mL (≈ 10 µM); in [5], 128 µg/mL (≈ 320 µM); in [6], 4 µg/mL (≈ 10 µM). Also, the MIC in assay [7] was 4 µg/mL (≈ 10 µM); in assay [8], 4 µg/mL (≈ 10 µM); in assay [9], 0.03 µg/mL (≈ 0.0751 µM); in assay [10], 128 µg/mL (≈ 320 µM); in [11], 4 µg/mL (≈ 10 µM); in [12], 0.5 µg/mL (≈ 1.25 µM). It took 4 µg/mL (≈ 10 µM) to inhibit growth in assay [13] (MIC).

With `CC(=O)NC1CCN(c2cc3c(cc2N)c(=O)c(C(=O)O)cn3C2CC2)C1` (stereo unspecified), the MIC worked out at 128 µg/mL (≈ 346 µM) in assay [1]; 4 µg/mL (≈ 10.8 µM) in assay [2]; 4 µg/mL (≈ 10.8 µM) in assay [3]; 128 µg/mL (≈ 346 µM) in assay [4]; 128 µg/mL (≈ 346 µM) in assay [5]; 128 µg/mL (≈ 346 µM) in [6]. The MIC was 128 µg/mL (≈ 346 µM) in [7]; 128 µg/mL (≈ 346 µM) in assay [8]; 4 µg/mL (≈ 10.8 µM) in [9]; 128 µg/mL (≈ 346 µM) in assay [10]; 128 µg/mL (≈ 346 µM) in [11]; 128 µg/mL (≈ 346 µM) in assay [12]. In assay [13], this compound came in with a minimal inhibitory concentration (MIC) of 128 µg/mL (≈ 346 µM).

Turning to `CC(C)(C)n1cc(C(=O)O)c(=O)c2cc(N)c(N3CCCC3)cc21`, the MIC in assay [1] stood at 8 µg/mL (≈ 24.3 µM); in [2], 0.12 µg/mL (≈ 0.364 µM); in assay [3], 0.12 µg/mL (≈ 0.364 µM); in assay [4] it was 64 µg/mL (≈ 194 µM); in assay [5] it was 64 µg/mL (≈ 194 µM); in assay [6] it was 8 µg/mL (≈ 24.3 µM). Moreover, the MIC in [7] was 16 µg/mL (≈ 48.6 µM); in [8], 16 µg/mL (≈ 48.6 µM); in assay [9], 0.12 µg/mL (≈ 0.364 µM); in assay [10], 128 µg/mL (≈ 389 µM); in [11], 32 µg/mL (≈ 97.1 µM); in [12] it was 4 µg/mL (≈ 12.1 µM). The compound further had an MIC in [13] of 8 µg/mL (≈ 24.3 µM).

Take `Nc1cc2c(=O)c(C(=O)O)cn(C3CC3)c2cc1N1CCC(O)CC1`: the MIC in assay [1] came out at 4 µg/mL (≈ 11.6 µM); in assay [2], 0.03 µg/mL (≈ 0.0874 µM); in assay [3], 0.03 µg/mL (≈ 0.0874 µM); in assay [4], 8 µg/mL (≈ 23.3 µM); in [5], 8 µg/mL (≈ 23.3 µM); in assay [6] it was 4 µg/mL (≈ 11.6 µM). The MIC in assay [7] is 2 µg/mL (≈ 5.82 µM); in assay [8] it was 2 µg/mL (≈ 5.82 µM); in [9], 0.03 µg/mL (≈ 0.0874 µM); in assay [10], 8 µg/mL (≈ 23.3 µM); in assay [11], 2 µg/mL (≈ 5.82 µM); in assay [12], 4 µg/mL (≈ 11.6 µM). It took 2 µg/mL (≈ 5.82 µM) to inhibit growth in [13] (MIC).

Turning to `CN1CCN(c2cc3c(cc2N)c(=O)c(C(=O)O)cn3-c2ccc(F)cc2)CC1`, the MIC was 4 µg/mL (≈ 10.1 µM) in assay [1]; 0.12 µg/mL (≈ 0.303 µM) in [2]; 0.12 µg/mL (≈ 0.303 µM) in [3]; 4 µg/mL (≈ 10.1 µM) in [4]; 8 µg/mL (≈ 20.2 µM) in assay [5]; 8 µg/mL (≈ 20.2 µM) in assay [6]. In addition, the MIC in [7] was 4 µg/mL (≈ 10.1 µM); in assay [8] it was 16 µg/mL (≈ 40.4 µM); in assay [9], 0.12 µg/mL (≈ 0.303 µM); in assay [10] it was 64 µg/mL (≈ 161 µM); in assay [11], 4 µg/mL (≈ 10.1 µM); in [12], 8 µg/mL (≈ 20.2 µM). In assay [13], this compound had an MIC of 8 µg/mL (≈ 20.2 µM).

Regarding `O=C(O)c1cn(C2CC2)c2cc(N3CCNCC3)c(F)cc2c1=O` [CIPROFLOXACIN], the MIC in [1] was 0.12 µg/mL (≈ 0.362 µM); in [2], 0.03 µg/mL (≈ 0.0905 µM); in [4], 0.06 µg/mL (≈ 0.181 µM); in assay [5] it was 0.06 µg/mL (≈ 0.181 µM); in [6], 0.12 µg/mL (≈ 0.362 µM); in assay [8], 0.06 µg/mL (≈ 0.181 µM). The MIC stood at 0.5 µg/mL (≈ 1.51 µM) in [10], 0.03 µg/mL (≈ 0.0905 µM) in assay [11], 0.12 µg/mL (≈ 0.362 µM) in [12] and 0.06 µg/mL (≈ 0.181 µM) in assay [13].

As for `Nc1cc2c(=O)c(C(=O)O)cn(C3CC3)c2cc1N1CCC(N)C1` (stereo unspecified), the MIC in assay [1] stood at 128 µg/mL (≈ 390 µM); in assay [2] it was 1 µg/mL (≈ 3.05 µM); in assay [3], 1 µg/mL (≈ 3.05 µM); in [4], 128 µg/mL (≈ 390 µM); in [5] it was 16 µg/mL (≈ 48.7 µM); in assay [6] it was 128 µg/mL (≈ 390 µM). The MIC was 16 µg/mL (≈ 48.7 µM) in assay [7]; 128 µg/mL (≈ 390 µM) in assay [8]; 0.5 µg/mL (≈ 1.52 µM) in assay [9]; 128 µg/mL (≈ 390 µM) in assay [10]; 16 µg/mL (≈ 48.7 µM) in assay [11]; 128 µg/mL (≈ 390 µM) in assay [12]. For the same compound, inhibition of growth in assay [13] (MIC) required 128 µg/mL (≈ 390 µM).

For the compound `Nc1cc2c(=O)c(C(=O)O)cn(C3CC3)c2cc1N1CCNCC1`, the MIC amounted to 64 µg/mL (≈ 195 µM) in assay [1]; 0.25 µg/mL (≈ 0.761 µM) in assay [2]; 0.25 µg/mL (≈ 0.761 µM) in assay [3]; 32 µg/mL (≈ 97.5 µM) in assay [4]; 2 µg/mL (≈ 6.09 µM) in [5]; 16 µg/mL (≈ 48.7 µM) in assay [6]. The MIC in assay [7] was 0.25 µg/mL (≈ 0.761 µM); in assay [8], 16 µg/mL (≈ 48.7 µM); in assay [9], 0.03 µg/mL (≈ 0.0914 µM); in [10] it was 128 µg/mL (≈ 390 µM); in assay [11], 0.5 µg/mL (≈ 1.52 µM); in assay [12], 64 µg/mL (≈ 195 µM). In addition, the lowest concentration to inhibit growth in assay [13] (MIC) was 16 µg/mL (≈ 48.7 µM).
